Reference: ChEMBL document CHEMBL1201862, “PubChem BioAssay data set” (2004)
The source made the active and inactive calls.

Assays:
Fatty acid synthase [1] = biological target: T1, Fatty acid synthase (Homo sapiens, UniProt P49327); assay: inhibition of human FAS-TE enzyme activity – biochemical, kinetic fluorescence intensity, dose response (AID 624326); type: functional;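 also: rate of fluorescence rise from hydrolysis of a fluorogenic O-methyl fluorescein ester substrate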
[2] = biological target: Heat shock protein HSP 90-alpha (Homo sapiens, UniProt P07900); type: functional, organism-based
Vero [3] = assay: cells; type: functional, cell-based; conditions: Chlorocebus sabaeus
Vero [4] = assay: cells; type: functional; conditions: Chlorocebus sabaeus
[5] = reduction of Shn3 3'UTR-driven luciferase in osteoblasts – cell-based, Clone20 osteoblasts, firefly luciferase, cherry-picked, dose response (AID 624132); type: functional;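 also: firefly luciferase luminescence from reporter carrying the Shn3 3'UTR in osteoblasts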
[6] = non-specific 3'UTR reporter inhibition in Clone20-Shn3RL – cell-based, Renilla luciferase, cherry-picked, counter-screen for Shn3 inhibitor project, dose response (AID 624133); type: functional
[7] = loss of viability in HepG2 cells – cell-based, CellTiter-Glo, cherry-picked, cytotoxicity control for Shn3 inhibitor project, dose response (AID 624134); type: functional
Fatty acid synthase [8] = biological target: T1, Fatty acid synthase; assay: inhibition of human FAS-TE enzyme activity – biochemical, endpoint fluorescence intensity, uHTS hits, dose response (AID 624327); type: functional;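 also: fluorescence from hydrolysis of an O-methyl fluorescein acyl ester substrate by the enzyme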
[9] = biological target: T2, Low molecular weight phosphotyrosine protein phosphatase (Homo sapiens, UniProt P24666); type: functional; conditions: read-out: IC50_Mean;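 also: Dose-response confirmation assay measuring inhibition of LMPTP enzyme activity by fluorescence intensity read-out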
T2 sequence (P24666 whole entry): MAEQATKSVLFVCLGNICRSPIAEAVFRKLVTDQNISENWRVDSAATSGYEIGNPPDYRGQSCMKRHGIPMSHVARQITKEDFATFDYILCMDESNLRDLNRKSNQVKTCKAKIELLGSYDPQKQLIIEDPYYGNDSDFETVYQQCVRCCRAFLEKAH

Vero [10] = assay: viability of Vero cells under compound – cytotoxicity control for flavivirus capping enzyme inhibitors (AID 588742); type: functional; conditions: Chlorocebus sabaeus
[11] = biological target: T3, Serine/threonine-protein phosphatase (Candida dubliniensis (strain CD36 / CBS 7987 / NCPF 3949 / NRRLY-17841) (Yeast), UniProt B9W6M3); assay: blockers of CaCl2-induced CDRE-lacZ signaling – S. cerevisiae, luminescence, secondary, dose response (AID 2388); type: functional, cell-based;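 also: yeast reporter cells carrying a calcineurin-responsive lacZ construct stimulated with calcium chloride; luminescent beta-galactosidase reporter signal in whole cells rather than isolated phosphatase activity; potency for inhibition where a drop in reporter signal means calcineurin blockade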
T3 sequence (B9W6M3 whole entry): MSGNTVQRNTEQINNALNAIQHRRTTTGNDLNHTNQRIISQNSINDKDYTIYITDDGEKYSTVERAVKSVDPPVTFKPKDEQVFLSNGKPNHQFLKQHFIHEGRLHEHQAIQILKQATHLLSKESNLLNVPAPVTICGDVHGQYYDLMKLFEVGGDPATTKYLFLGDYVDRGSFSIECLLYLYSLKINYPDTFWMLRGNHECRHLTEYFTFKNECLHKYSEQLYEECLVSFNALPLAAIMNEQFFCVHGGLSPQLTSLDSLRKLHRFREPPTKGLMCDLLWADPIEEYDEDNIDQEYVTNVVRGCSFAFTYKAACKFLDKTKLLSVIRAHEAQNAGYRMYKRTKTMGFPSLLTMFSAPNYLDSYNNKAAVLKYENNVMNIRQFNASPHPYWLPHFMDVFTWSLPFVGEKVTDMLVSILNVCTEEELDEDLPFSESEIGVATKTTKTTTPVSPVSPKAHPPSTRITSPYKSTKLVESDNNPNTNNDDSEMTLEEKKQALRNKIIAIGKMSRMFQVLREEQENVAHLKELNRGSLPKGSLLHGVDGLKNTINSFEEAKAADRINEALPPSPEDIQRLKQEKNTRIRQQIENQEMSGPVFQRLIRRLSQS

[12] = NIH-3T3 fibroblast cytotoxicity, dose response, cytotoxicity control, cell-based, fluorescence, Alamar Blue, secondary assay (AID 2327); type: functional;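 also: NIH-3T3 mouse fibroblasts cultured with fluconazole at 8 µg/mL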
[13] = biological target: ATP-dependent molecular chaperone HSP82 (Candida albicans (strain WO-1) (Yeast), UniProt C4YTQ8); assay: steroid-induced GRE reporter decrease in yeast – S. cerevisiae, luminescence, Hsp90 inhibitor project, dose response (AID 2400); type: functional, cell-based;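 also: beta-galactosidase luminescence from glucocorticoid response element reporter as proxy for Hsp90 function; inhibitor potency where signal loss means Hsp90 inhibition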
[14] = fluconazole-exposed Candida albicans growth modulators – fluorescence, retest, confirmation (AID 2467); type: functional, cell-based
HEK293 [15] = assay: membrane integrity loss in HEK cells – cell-based, fluorescence, cytotoxicity control for IDE activator project, dose response (AID 588440); type: functional; conditions: Homo sapiens;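 also: cytotoxicity by LDH release measuring loss of membrane integrity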
Insulin-degrading enzyme [16] = biological target: T4, Insulin-degrading enzyme (Homo sapiens, UniProt P14735); assay: recombinant IDE activation, cell-free – biochemical, fluorescence polarization, counter-screen for IDE activator project, dose response (AID 588681)
T4 sequence (P14735 whole entry): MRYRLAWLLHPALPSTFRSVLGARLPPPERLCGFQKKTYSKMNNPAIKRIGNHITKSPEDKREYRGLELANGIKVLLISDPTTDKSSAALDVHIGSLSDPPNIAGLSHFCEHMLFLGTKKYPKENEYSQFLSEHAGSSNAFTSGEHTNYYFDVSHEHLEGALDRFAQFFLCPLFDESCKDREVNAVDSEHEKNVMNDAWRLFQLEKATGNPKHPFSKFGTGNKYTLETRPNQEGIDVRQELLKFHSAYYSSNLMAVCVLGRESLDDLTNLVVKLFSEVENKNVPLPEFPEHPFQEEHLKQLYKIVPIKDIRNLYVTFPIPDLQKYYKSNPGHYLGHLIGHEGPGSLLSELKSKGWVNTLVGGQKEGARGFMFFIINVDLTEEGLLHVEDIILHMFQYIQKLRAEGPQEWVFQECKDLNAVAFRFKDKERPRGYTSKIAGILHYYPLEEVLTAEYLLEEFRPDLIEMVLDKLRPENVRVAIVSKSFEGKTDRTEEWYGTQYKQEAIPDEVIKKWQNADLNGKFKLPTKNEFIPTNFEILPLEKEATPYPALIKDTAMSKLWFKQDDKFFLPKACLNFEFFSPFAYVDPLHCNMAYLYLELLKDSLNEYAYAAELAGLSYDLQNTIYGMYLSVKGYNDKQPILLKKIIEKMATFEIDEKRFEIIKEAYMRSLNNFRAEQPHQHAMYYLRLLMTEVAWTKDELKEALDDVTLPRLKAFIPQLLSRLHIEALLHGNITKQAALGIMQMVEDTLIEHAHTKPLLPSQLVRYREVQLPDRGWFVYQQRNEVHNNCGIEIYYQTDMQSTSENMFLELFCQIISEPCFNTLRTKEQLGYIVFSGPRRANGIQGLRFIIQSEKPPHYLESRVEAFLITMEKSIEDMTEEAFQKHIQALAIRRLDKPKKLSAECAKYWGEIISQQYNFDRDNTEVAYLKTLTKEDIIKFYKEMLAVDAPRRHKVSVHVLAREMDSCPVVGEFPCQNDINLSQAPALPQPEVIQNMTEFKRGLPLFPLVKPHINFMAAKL

HEK293 [17] = assay: optical interference in Abeta FP readout, dose response, artefact control for IDE activator project, biochemical, fluorescence polarization (AID 588442); type: functional, cell-based; conditions: Homo sapiens
Insulin-degrading enzyme [18] = biological target: T4, Insulin-degrading enzyme; assay: cellular IDE activation of Abeta substrate cleavage – fluorescence polarization, HEK cells, dose response (AID 588439); type: functional, cell-based

T1 sequence (P49327 whole entry): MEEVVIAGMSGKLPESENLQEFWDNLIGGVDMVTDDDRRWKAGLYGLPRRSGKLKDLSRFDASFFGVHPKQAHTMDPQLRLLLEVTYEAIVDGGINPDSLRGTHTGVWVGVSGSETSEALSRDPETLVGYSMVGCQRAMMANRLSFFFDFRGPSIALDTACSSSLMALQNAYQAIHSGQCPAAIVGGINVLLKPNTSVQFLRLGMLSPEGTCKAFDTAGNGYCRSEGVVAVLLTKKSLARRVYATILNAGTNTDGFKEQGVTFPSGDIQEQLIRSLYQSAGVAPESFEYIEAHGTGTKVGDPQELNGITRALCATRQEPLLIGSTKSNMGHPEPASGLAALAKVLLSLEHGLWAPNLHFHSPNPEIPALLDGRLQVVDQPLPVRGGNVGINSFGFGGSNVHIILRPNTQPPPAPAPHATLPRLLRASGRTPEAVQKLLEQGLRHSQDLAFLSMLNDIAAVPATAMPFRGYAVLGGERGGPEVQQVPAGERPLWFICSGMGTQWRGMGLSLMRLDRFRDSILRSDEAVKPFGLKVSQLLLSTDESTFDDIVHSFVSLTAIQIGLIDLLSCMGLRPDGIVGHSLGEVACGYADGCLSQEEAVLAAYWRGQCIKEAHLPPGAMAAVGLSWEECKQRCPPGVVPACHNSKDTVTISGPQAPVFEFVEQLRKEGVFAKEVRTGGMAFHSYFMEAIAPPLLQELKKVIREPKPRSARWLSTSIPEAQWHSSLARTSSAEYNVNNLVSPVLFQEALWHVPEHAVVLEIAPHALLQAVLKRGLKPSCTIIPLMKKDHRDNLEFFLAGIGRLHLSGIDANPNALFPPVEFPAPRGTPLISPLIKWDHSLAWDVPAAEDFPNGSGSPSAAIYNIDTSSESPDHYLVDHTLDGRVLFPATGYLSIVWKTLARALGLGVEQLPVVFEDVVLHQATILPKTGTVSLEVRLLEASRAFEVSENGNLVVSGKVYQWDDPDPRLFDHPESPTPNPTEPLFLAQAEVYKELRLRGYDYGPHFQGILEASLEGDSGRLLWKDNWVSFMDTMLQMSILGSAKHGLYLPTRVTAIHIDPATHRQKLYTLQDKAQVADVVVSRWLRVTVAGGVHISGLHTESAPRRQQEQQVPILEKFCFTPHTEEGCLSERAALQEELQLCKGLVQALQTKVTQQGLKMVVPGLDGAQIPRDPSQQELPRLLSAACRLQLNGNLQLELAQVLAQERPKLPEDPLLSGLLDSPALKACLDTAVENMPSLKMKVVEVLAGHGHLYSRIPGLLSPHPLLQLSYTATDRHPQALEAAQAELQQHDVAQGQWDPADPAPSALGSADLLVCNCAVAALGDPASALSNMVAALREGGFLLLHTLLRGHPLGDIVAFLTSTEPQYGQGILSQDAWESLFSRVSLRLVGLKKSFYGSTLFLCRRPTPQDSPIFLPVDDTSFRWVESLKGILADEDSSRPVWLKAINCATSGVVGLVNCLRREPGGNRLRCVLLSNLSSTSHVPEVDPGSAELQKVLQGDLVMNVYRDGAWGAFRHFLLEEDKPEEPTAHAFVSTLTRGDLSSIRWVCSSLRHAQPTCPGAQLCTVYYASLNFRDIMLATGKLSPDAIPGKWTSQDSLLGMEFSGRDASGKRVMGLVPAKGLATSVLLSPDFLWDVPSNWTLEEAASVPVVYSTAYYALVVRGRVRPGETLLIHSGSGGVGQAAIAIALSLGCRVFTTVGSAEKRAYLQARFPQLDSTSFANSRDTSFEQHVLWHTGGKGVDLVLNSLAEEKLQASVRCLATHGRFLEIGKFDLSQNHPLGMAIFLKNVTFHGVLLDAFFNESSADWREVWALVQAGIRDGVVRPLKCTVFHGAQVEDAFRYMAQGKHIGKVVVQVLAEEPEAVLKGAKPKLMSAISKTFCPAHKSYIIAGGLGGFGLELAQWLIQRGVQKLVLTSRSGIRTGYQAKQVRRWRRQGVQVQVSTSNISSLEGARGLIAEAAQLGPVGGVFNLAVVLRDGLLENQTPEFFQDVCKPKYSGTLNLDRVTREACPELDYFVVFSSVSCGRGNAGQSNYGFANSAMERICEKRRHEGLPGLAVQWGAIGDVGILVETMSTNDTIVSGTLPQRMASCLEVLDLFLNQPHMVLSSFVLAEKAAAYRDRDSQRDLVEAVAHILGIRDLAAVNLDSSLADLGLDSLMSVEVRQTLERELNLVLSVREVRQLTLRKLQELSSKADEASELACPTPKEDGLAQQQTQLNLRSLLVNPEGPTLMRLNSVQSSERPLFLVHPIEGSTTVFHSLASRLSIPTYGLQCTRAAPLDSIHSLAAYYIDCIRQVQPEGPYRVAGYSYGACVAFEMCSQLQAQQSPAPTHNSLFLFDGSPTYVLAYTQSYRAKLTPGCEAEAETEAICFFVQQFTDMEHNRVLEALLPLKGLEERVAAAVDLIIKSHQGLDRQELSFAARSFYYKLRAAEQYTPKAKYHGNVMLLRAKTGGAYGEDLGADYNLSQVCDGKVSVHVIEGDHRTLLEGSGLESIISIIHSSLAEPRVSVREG
ATP-dependent molecular chaperone HSP82, sequence (C4YTQ8 whole entry): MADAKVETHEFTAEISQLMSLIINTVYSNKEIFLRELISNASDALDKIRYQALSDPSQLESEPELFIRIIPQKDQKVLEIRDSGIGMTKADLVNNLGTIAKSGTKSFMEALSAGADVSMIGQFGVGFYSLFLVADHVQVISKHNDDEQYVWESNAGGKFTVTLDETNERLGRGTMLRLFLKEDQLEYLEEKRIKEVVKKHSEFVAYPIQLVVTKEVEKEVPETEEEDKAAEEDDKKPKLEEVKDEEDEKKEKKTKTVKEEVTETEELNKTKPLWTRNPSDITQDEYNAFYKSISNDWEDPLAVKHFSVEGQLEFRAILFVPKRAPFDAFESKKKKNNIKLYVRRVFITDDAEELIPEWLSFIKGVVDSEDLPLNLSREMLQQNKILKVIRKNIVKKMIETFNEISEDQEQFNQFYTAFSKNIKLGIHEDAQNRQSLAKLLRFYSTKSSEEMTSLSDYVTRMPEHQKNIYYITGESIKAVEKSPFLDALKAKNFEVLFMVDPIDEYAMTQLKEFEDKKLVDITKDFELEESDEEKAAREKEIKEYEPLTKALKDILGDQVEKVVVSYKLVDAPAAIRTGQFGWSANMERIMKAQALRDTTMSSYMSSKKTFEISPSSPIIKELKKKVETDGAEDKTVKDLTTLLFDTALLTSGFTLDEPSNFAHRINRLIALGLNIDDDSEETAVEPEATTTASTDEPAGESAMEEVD

For `O=C1C(F)=CC(COC(c2ccccc2)(c2ccccc2)c2ccccc2)OC1n1cc(F)c(=O)[nH]c1=O` (stereo not drawn), the IC50 (Fatty acid synthase [1]) was 8.13 µM (active), the AC50 [2] was 2.6 µM (active) and the IC50 (Vero [3]) was 12.1 µM (active). For the same compound, the CC50 (Vero [4]) was 6.83 µM (active), the AC50 [5] was 0.428 µM (active) and the AC50 [6] was 2.42 µM (active). For the same compound, the AC50 [7] was 9.11 µM (active) and the IC50 (Fatty acid synthase [8]) was 7.69 µM (active).
With `CN(C)c1ccc(C(=O)C=Cc2ccc([N+](=O)[O-])cc2)cc1` the IC50 [9] was 80 µM (inactive).
With `O=C(Nc1ccncc1)c1cc2ccccc2cc1O` the CC50 (Vero [10]) was > 40 µM (active).
With `Cc1cc(=O)oc2cc(Oc3ccc([N+](=O)[O-])cc3[N+](=O)[O-])ccc12` the EC50 [11] was > 180 µM (inactive), the EC50 [12] was 35.9 µM (inconclusive) and the EC50 [13] was > 160 µM (inactive). For the same compound, the EC50 [14] was 1.3 µM (active).
For `CCOC(=O)/C=C/CN(C(=O)OC(C)(C)C)S(=O)(=O)N1CC=CC1`, the IC50 (HEK293 [15]) was > 89.2 µM (inactive), the EC50 (Insulin-degrading enzyme [16]) was > 54.7 µM (inactive) and the EC50 (HEK293 [17]) was > 55.9 µM (inactive). The EC50 (Insulin-degrading enzyme [18]) was > 54.7 µM (inactive).
